Data as given in patent publication US20170360791A1, “PHARMACEUTICAL COMPOSITIONS FOR INCREASING THE BIOAVAILABILITY OF POORLY SOLUBLE DRUGS” (ASTEX PHARMACEUTICALS, INC., priority 2014, published 2017).
Values after ≈ are worked out from the molar mass of the structure shown. Like-named read-outs stand apart in the source and are kept apart here.

Assays:
[1] = assay type: physicochemical; conditions: room temperature, >24 hours
Method: The suspensions were filtered through 0.2 or 0.45 microm filters prior to HPLC analysis. Some filtrates were diluted with MeOH prior to the HPLC analysis.

[2] = MP470FB content in the supernatant of Soluplus/SIF mixtures at various time-points; assay type: physicochemical; parameters: MP470FB content in the supernatant: unit not given here; conditions: 37° C.

SMILES: S=C(NCc1ccc2c(c1)OCO2)N1CCN(c2ncnc3c2oc2ccccc23)CC1 [MP470 FB, amuvatinib]
- solubility ([1]; TPGS, aqueous with cosolvent or surfactant or cyclodextrin, thermodynamic from solid, solvent TPGS, read-out: Solubility): 10000 µg/mL (≈ 22.3 mM)
- solubility ([1]; Tween 80, aqueous with cosolvent or surfactant or cyclodextrin, thermodynamic from solid, solvent Tween 80, read-out: Solubility): 6600 µg/mL (≈ 14.7 mM)
- solubility ([1]; acetic acid, organic solvent or mixture, thermodynamic from solid, solvent Acetic acid, read-out: Solubility): 2900 µg/mL (≈ 6.48 mM)
- solubility ([1]; anisole, organic solvent or mixture, thermodynamic from solid, solvent Anisole, read-out: Solubility): 1800 µg/mL (≈ 4.02 mM)
- solubility ([1]; ethanol, organic solvent or mixture, thermodynamic from solid, solvent Ethanol, read-out: Solubility): 300 µg/mL (≈ 0.67 mM)
- solubility ([1]; ethyl cinnamate, organic solvent or mixture, thermodynamic from solid, solvent Ethyl cinnamate, read-out: Solubility): 3900 µg/mL (≈ 8.71 mM)
- solubility ([1]; linoleic acid, oil or lipid, thermodynamic from solid, solvent Linoleic acid, read-out: Solubility): 20 µg/mL (≈ 0.0447 mM)
- solubility ([1]; oleic acid, oil or lipid, thermodynamic from solid, solvent Oleic acid, read-out: Solubility): 100 µg/mL (≈ 0.223 mM)
- solubility ([1]; propylene carbonate, organic solvent or mixture, thermodynamic from solid, solvent Propylene carbonate, read-out: Solubility): 2900 µg/mL (≈ 6.48 mM)
- solubility ([1]; solvent Acetone): 2600 µg/mL (≈ 5.81 mM)
- solubility ([1]; solvent Benzyl alcohol): 63000 µg/mL (≈ 141 mM)
- solubility ([1]; solvent DMA): >240000 µg/mL
- solubility ([1]; solvent DMA, listed as MP470 free base): > 240000 µg/mL
- solubility ([1]; solvent DMSO): ~130000 µg/mL (≈ 290 mM)
- solubility ([1]; solvent Glycerin): 400 µg/mL (≈ 0.894 mM)
- solubility ([1]; solvent Labrasol): 11000 µg/mL (≈ 24.6 mM)
- solubility ([1]; solvent Methanol): 500 µg/mL (≈ 1.12 mM)
- solubility ([1]; solvent NMP): 300000 to 360000 µg/mL
- solubility ([1]; solvent NMP, listed as MP470 free base): ~300000 µg/mL (≈ 670 mM)
- solubility ([1]; solvent PEG400): 14000 µg/mL (≈ 31.3 mM)
- solubility ([1]; solvent Phosal 50 PG): 500 µg/mL (≈ 1.12 mM)
- solubility ([1]; solvent Propylene glycol): 400 µg/mL (≈ 0.894 mM)
- solubility ([1]; solvent Tween 20): 8000 µg/mL (≈ 17.9 mM)
- solubility ([1]; triacetin, organic solvent or mixture, thermodynamic from solid, solvent Triacetin, read-out: Solubility): 1000 µg/mL (≈ 2.23 mM)
- MP470FB content in the supernatant ([2]; 0.2% Soluplus/SIF, MP470FB 0.2 mg/mL, 30 min): 0.082
- MP470FB content in the supernatant ([2]; 0.2% Soluplus/SIF, MP470FB 0.2 mg/mL, 2 hr): 0.084
- MP470FB content in the supernatant ([2]; 0.2% Soluplus/SIF, MP470FB 0.2 mg/mL, 4 hr): 0.089
- MP470FB content in the supernatant ([2]; 0.2% Soluplus/SIF, MP470FB 0.2 mg/mL, 6 hr): 0.087
- MP470FB content in the supernatant ([2]; 0.2% Soluplus/SIF, MP470FB 0.2 mg/mL, 24 hr): 0.107
- MP470FB content in the supernatant ([2]; 0.2% Soluplus/SIF, MP470FB 0.6 mg/mL, 30 min): 0.126
- MP470FB content in the supernatant ([2]; 0.2% Soluplus/SIF, MP470FB 0.6 mg/mL, 2 hr): 0.136
- MP470FB content in the supernatant ([2]; 0.2% Soluplus/SIF, MP470FB 0.6 mg/mL, 4 hr): 0.152
- MP470FB content in the supernatant ([2]; 0.2% Soluplus/SIF, MP470FB 0.6 mg/mL, 6 hr): 0.154
- MP470FB content in the supernatant ([2]; 0.2% Soluplus/SIF, MP470FB 0.6 mg/mL, 24 hr): 0.178
- MP470FB content in the supernatant ([2]; 0.5% Soluplus/SIF, MP470FB 0.2 mg/mL, 30 min): 0.092
- MP470FB content in the supernatant ([2]; 0.5% Soluplus/SIF, MP470FB 0.2 mg/mL, 2 hr): 0.097
- MP470FB content in the supernatant ([2]; 0.5% Soluplus/SIF, MP470FB 0.2 mg/mL, 4 hr): 0.103
- MP470FB content in the supernatant ([2]; 0.5% Soluplus/SIF, MP470FB 0.2 mg/mL, 6 hr): 0.107
- MP470FB content in the supernatant ([2]; 0.5% Soluplus/SIF, MP470FB 0.2 mg/mL, 24 hr): 0.127
- MP470FB content in the supernatant ([2]; 0.5% Soluplus/SIF, MP470FB 0.6 mg/mL, 30 min): 0.155
- MP470FB content in the supernatant ([2]; 0.5% Soluplus/SIF, MP470FB 0.6 mg/mL, 2 hr): 0.190
- MP470FB content in the supernatant ([2]; 0.5% Soluplus/SIF, MP470FB 0.6 mg/mL, 4 hr): 0.228
- MP470FB content in the supernatant ([2]; 0.5% Soluplus/SIF, MP470FB 0.6 mg/mL, 6 hr): 0.235
- MP470FB content in the supernatant ([2]; 0.5% Soluplus/SIF, MP470FB 0.6 mg/mL, 24 hr): 0.315
- MP470FB content in the supernatant ([2]; 1.0% Soluplus/SIF, MP470FB 0.2 mg/mL, 30 min): 0.096
- MP470FB content in the supernatant ([2]; 1.0% Soluplus/SIF, MP470FB 0.2 mg/mL, 2 hr): 0.104
- MP470FB content in the supernatant ([2]; 1.0% Soluplus/SIF, MP470FB 0.2 mg/mL, 4 hr): 0.115
- MP470FB content in the supernatant ([2]; 1.0% Soluplus/SIF, MP470FB 0.2 mg/mL, 6 hr): 0.118
- MP470FB content in the supernatant ([2]; 1.0% Soluplus/SIF, MP470FB 0.2 mg/mL, 24 hr): 0.135
- MP470FB content in the supernatant ([2]; 1.0% Soluplus/SIF, MP470FB 0.6 mg/mL, 30 min): 0.179
- MP470FB content in the supernatant ([2]; 1.0% Soluplus/SIF, MP470FB 0.6 mg/mL, 2 hr): 0.223
- MP470FB content in the supernatant ([2]; 1.0% Soluplus/SIF, MP470FB 0.6 mg/mL, 4 hr): 0.277
- MP470FB content in the supernatant ([2]; 1.0% Soluplus/SIF, MP470FB 0.6 mg/mL, 6 hr): 0.318
- MP470FB content in the supernatant ([2]; 1.0% Soluplus/SIF, MP470FB 0.6 mg/mL, 24 hr): 0.428
- MP470FB content in the supernatant ([2]; 2.0% Soluplus/SIF, MP470FB 0.2 mg/mL, 30 min): 0.101
- MP470FB content in the supernatant ([2]; 2.0% Soluplus/SIF, MP470FB 0.2 mg/mL, 2 hr): 0.110
- MP470FB content in the supernatant ([2]; 2.0% Soluplus/SIF, MP470FB 0.2 mg/mL, 4 hr): 0.126
- MP470FB content in the supernatant ([2]; 2.0% Soluplus/SIF, MP470FB 0.2 mg/mL, 6 hr): 0.138
- MP470FB content in the supernatant ([2]; 2.0% Soluplus/SIF, MP470FB 0.2 mg/mL, 24 hr): 0.170
- MP470FB content in the supernatant ([2]; 2.0% Soluplus/SIF, MP470FB 0.6 mg/mL, 30 min): 0.206
- MP470FB content in the supernatant ([2]; 2.0% Soluplus/SIF, MP470FB 0.6 mg/mL, 2 hr): 0.290
- MP470FB content in the supernatant ([2]; 2.0% Soluplus/SIF, MP470FB 0.6 mg/mL, 4 hr): 0.368
- MP470FB content in the supernatant ([2]; 2.0% Soluplus/SIF, MP470FB 0.6 mg/mL, 6 hr): 0.409
- MP470FB content in the supernatant ([2]; 2.0% Soluplus/SIF, MP470FB 0.6 mg/mL, 24 hr): 0.469
- MP470FB content in the supernatant ([2]; 5.0% Soluplus/SIF, MP470FB 0.2 mg/mL, 30 min): 0.114
- MP470FB content in the supernatant ([2]; 5.0% Soluplus/SIF, MP470FB 0.2 mg/mL, 2 hr): 0.124
- MP470FB content in the supernatant ([2]; 5.0% Soluplus/SIF, MP470FB 0.2 mg/mL, 4 hr): 0.129
- MP470FB content in the supernatant ([2]; 5.0% Soluplus/SIF, MP470FB 0.2 mg/mL, 6 hr): 0.137
- MP470FB content in the supernatant ([2]; 5.0% Soluplus/SIF, MP470FB 0.2 mg/mL, 24 hr): 0.144
- MP470FB content in the supernatant ([2]; 5.0% Soluplus/SIF, MP470FB 0.6 mg/mL, 30 min): 0.244
- MP470FB content in the supernatant ([2]; 5.0% Soluplus/SIF, MP470FB 0.6 mg/mL, 2 hr): 0.342
- MP470FB content in the supernatant ([2]; 5.0% Soluplus/SIF, MP470FB 0.6 mg/mL, 4 hr): 0.374
- MP470FB content in the supernatant ([2]; 5.0% Soluplus/SIF, MP470FB 0.6 mg/mL, 6 hr): 0.411
- MP470FB content in the supernatant ([2]; 5.0% Soluplus/SIF, MP470FB 0.6 mg/mL, 24 hr): 0.467
- MP470FB content in the supernatant ([2]; Control (SIF), MP470FB 0.2 mg/mL, 30 min): 0.002
- MP470FB content in the supernatant ([2]; Control (SIF), MP470FB 0.2 mg/mL, 2 hr): 0
- MP470FB content in the supernatant ([2]; Control (SIF), MP470FB 0.2 mg/mL, 4 hr): 0
- MP470FB content in the supernatant ([2]; Control (SIF), MP470FB 0.2 mg/mL, 6 hr): 0
- MP470FB content in the supernatant ([2]; Control (SIF), MP470FB 0.2 mg/mL, 24 hr): 0
- MP470FB content in the supernatant ([2]; Control (SIF), MP470FB 0.6 mg/mL, 30 min): 0.002
- MP470FB content in the supernatant ([2]; Control (SIF), MP470FB 0.6 mg/mL, 2 hr): 0
- MP470FB content in the supernatant ([2]; Control (SIF), MP470FB 0.6 mg/mL, 4 hr): 0
- MP470FB content in the supernatant ([2]; Control (SIF), MP470FB 0.6 mg/mL, 6 hr): 0
- MP470FB content in the supernatant ([2]; Control (SIF), MP470FB 0.6 mg/mL, 24 hr): 0
- time MP470 is kept stable in solution by interaction with Soluplus ([2]; Soluplus/SIF): at least 24 hours
